One assay concerns PCB490-3 (human epithelioid sarcoma primary culture). The method, then:
(§1)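 Roche open-access kinase inhibitor screen (223 compounds) on human epithelioid sarcoma primary cultures from three spatially distinct regions of tumor PCB490. 384-well plates, 72 h, CellTiter-Glo viability; IC50 by Hill curve fit. 100000 nM = no IC50 reached. Compound ids carry a plate-well prefix, which is stripped.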
In the case of `Cn1c(=O)c(Cc2ccc(F)cc2F)cc2cnc(NC3CCOCC3)nc21`, the IC50 cell viability is above 100 µM.

Compound `Cn1cc(C2=C(c3ccccc3C(F)(F)F)C(=O)NC2=O)c2ccccc21` gave an IC50 cell viability above 100 µM.

As to `CNCC1CCn2c(c(C3=C(c4cn(C)c5ccccc45)C(=O)NC3=O)c3ccccc32)C1` (stereo unspecified), the IC50 cell viability amounted to 0.89 µM.

Compound `Nc1c(C(=O)c2ccc(C#CCN3CCOCC3)cc2)cnn1-c1ccc(F)cc1` gave an IC50 cell viability above 100 µM.

Compound `O=C1NC(=NCCc2ccc(Cl)cc2)S/C1=C\c1ccc2ncccc2c1` returned an IC50 cell viability above 100 µM.

With `Cn1cc(C2=C(c3cccc(OCC(O)CO)c3)C(=O)NC2=O)c2ccccc21` (stereo unspecified), the IC50 cell viability was above 100 µM.

Another assay has as its system PCB490-5 (human epithelioid sarcoma primary culture). The method, then: as §1
As to `Cn1c(=O)c(Cc2ccc(F)cc2F)cc2cnc(NC3CCOCC3)nc21`, the IC50 cell viability is above 100 µM.

Regarding `Cn1cc(C2=C(c3ccccc3C(F)(F)F)C(=O)NC2=O)c2ccccc21`, the IC50 cell viability was above 100 µM.

In turn, `CNCC1CCn2c(c(C3=C(c4cn(C)c5ccccc45)C(=O)NC3=O)c3ccccc32)C1` (stereo unspecified) displayed an IC50 cell viability above 100 µM.

For the compound `Nc1c(C(=O)c2ccc(C#CCN3CCOCC3)cc2)cnn1-c1ccc(F)cc1`, the IC50 cell viability is above 100 µM.

Consider `O=C1NC(=NCCc2ccc(Cl)cc2)S/C1=C\c1ccc2ncccc2c1`, for which the IC50 cell viability was above 100 µM.

For `Cn1cc(C2=C(c3cccc(OCC(O)CO)c3)C(=O)NC2=O)c2ccccc21` (stereo unspecified), the IC50 cell viability was above 100 µM.

The test system of a further assay is PCB490-4 (human epithelioid sarcoma primary culture). The method, then:
as §1
The compound `Cn1c(=O)c(Cc2ccc(F)cc2F)cc2cnc(NC3CCOCC3)nc21` came in with an IC50 cell viability above 100 µM.

With `Cn1cc(C2=C(c3ccccc3C(F)(F)F)C(=O)NC2=O)c2ccccc21`, the IC50 cell viability is above 100 µM.

In the case of `CNCC1CCn2c(c(C3=C(c4cn(C)c5ccccc45)C(=O)NC3=O)c3ccccc32)C1` (stereo unspecified), the IC50 cell viability is above 100 µM.

`Nc1c(C(=O)c2ccc(C#CCN3CCOCC3)cc2)cnn1-c1ccc(F)cc1`: the IC50 cell viability is above 100 µM.

On to `O=C1NC(=NCCc2ccc(Cl)cc2)S/C1=C\c1ccc2ncccc2c1`, for which the IC50 cell viability was above 100 µM.

Compound `Cn1cc(C2=C(c3cccc(OCC(O)CO)c3)C(=O)NC2=O)c2ccccc21` (stereo unspecified) yielded an IC50 cell viability above 100 µM.

A further assay has as its system U23674 (mouse alveolar rhabdomyosarcoma primary culture).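 Also: alveolar rhabdomyosarcoma tumor culture.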
`O=C(Nc1n[nH]c2cc(-c3cc(F)ccc3F)ccc12)C1CC1` came in with an IC50 cell viability above 10 µM.

For `CS(=O)(=O)CCNCc1cc(-c2cc3c(Nc4ccc(OCc5cccc(F)c5)c(Cl)c4)ncnc3s2)cs1`, the IC50 cell viability is above 10 µM.

For `CN1CCC(C(=O)Nc2n[nH]c3nnc(-c4ccccc4)cc23)CC1`, the IC50 cell viability was above 10 µM.

The compound `NS(=O)(=O)c1ccc(N=Nc2c(O)[nH]c3cccc(CCc4ccncc4)c23)cc1` registered an IC50 cell viability above 10 µM.

Compound `CC(=O)Nc1cccc(C#Cc2cncnc2Nc2ccc(OCc3cccc(F)c3)c(Cl)c2)n1` had an IC50 cell viability above 10 µM.

`CNC(=O)c1ncccc1Nc1nc(Nc2cc3c(cc2OC)CCCN3C(=O)CN(C)C)nc2[nH]ccc12` yielded an IC50 cell viability above 10 µM.

`C[C@@H](Oc1cc(-n2cnc3ccc(OCC4CCN(C)CC4)cc32)sc1C(N)=O)c1ccccc1C(F)(F)F` came in with an IC50 cell viability of 0.1 µM.

In turn, `Fc1cccc(COc2ccc(Nc3ncnc4sc(-c5cccs5)cc34)cc2Cl)c1` displayed an IC50 cell viability above 10 µM.

Turning to `CN1CCN(Cc2ccc(-c3cc4ncnc(Nc5ccc(OCc6cccc(F)c6)c(Cl)c5)c4s3)o2)CC1`, the IC50 cell viability was above 10 µM.

Take `COc1cc2ncnc(Nc3ccc4c(cnn4Cc4ccccc4)c3)c2cc1OC`: the IC50 cell viability is above 10 µM.

Take `O=C(Nc1n[nH]c2nc(-c3ccco3)c(Br)cc12)C1CC1`: the IC50 cell viability was above 10 µM.

Regarding `CS(=O)(=O)CCNCc1ccc(-c2ccc3ncnc(Nc4ccc(OCc5ccccc5)c(Br)c4)c3c2)o1`, the IC50 cell viability is above 10 µM.

`COc1cccc(/C=N/Nc2ncnc3c2cnn3-c2cccc(OC)c2)c1` gave an IC50 cell viability above 10 µM.

On to `CS(=O)(=O)CCNCc1ccc(-c2ccc3ncnc(Nc4ccc(OCc5ccccc5)c(C(F)(F)F)c4)c3c2)o1`, for which the IC50 cell viability is above 10 µM.

As for `CCCN(CCS(C)(=O)=O)Cc1ccc(-c2ccc3ncnc(Nc4ccc(OCc5cccc(F)c5)c(Cl)c4)c3c2)o1`, the IC50 cell viability is above 10 µM.

As for `COc1ccc(-c2ccc3c(NC(=O)C4CC4)n[nH]c3n2)cc1`, the IC50 cell viability was above 10 µM.

`CNC(=O)c1cncc(/C=C/c2ccccc2C)c1`: the IC50 cell viability was above 10 µM.

The compound `COC(=O)Nc1nc2ccc(Oc3ccc(NC(=O)Nc4cccc(Cl)c4)cc3)cc2[nH]1` registered an IC50 cell viability above 10 µM.

`COc1cc(Nc2ncc(-c3ccccc3)o2)cc(OC)c1` yielded an IC50 cell viability above 10 µM.

As to `CN(C)C(=O)O[C@@H]1CN[C@@H](C#Cc2cc3ncnc(Nc4ccc(OCc5cccc(F)c5)c(Cl)c4)c3s2)C1`, the IC50 cell viability is above 10 µM.

Turning to `COc1cc2c(cc1Nc1nc(Nc3ccsc3C(N)=O)c3cc[nH]c3n1)N(C(=O)CN(C)C)CCC2`, the IC50 cell viability stood at 0.05 µM.

As to `COc1cc(Nc2nccc(Nc3ccc4c(C)[nH]nc4c3)n2)cc(OC)c1OC`, the IC50 cell viability was 5.6 µM.

Regarding `C[C@@H](Oc1cc(-n2cnc3ccc(OCC4CCN(C)CC4)cc32)sc1C(N)=O)c1ccccc1Cl`, the IC50 cell viability came to 1.3 µM.

Take `Nc1nc(-c2ccccn2)c(-c2ccc3ncccc3n2)s1`: the IC50 cell viability is above 10 µM.

Regarding `NC(=O)c1cccc(Nc2nccc(Nc3cccc(F)c3)n2)c1`, the IC50 cell viability was above 10 µM.

In turn, `CN(c1ccc(NC(=O)Nc2c(Cl)cccc2Cl)cc1)c1ccnc(Nc2cccc(CS(C)(=O)=O)c2)n1` registered an IC50 cell viability above 10 µM.

`CC1=C(C(=O)Nc2cc(Cl)c3[nH]ncc3c2)C(c2ccc(C(F)(F)F)cc2)CC(=O)N1` (stereo unspecified): the IC50 cell viability is above 10 µM.

In turn, `COc1ccc(COc2ccc(Cc3cnc(N)nc3N)cc2OC)cc1` came in with an IC50 cell viability above 10 µM.

As to `NS(=O)(=O)c1ccc(N=Nc2c(O)[nH]c3ccc(Cl)cc23)cc1`, the IC50 cell viability is above 10 µM.

`Nc1nccc(-c2c(-c3ccc(F)cc3)ncn2CCCN2CCOCC2)n1`: the IC50 cell viability was above 10 µM.

Turning to `COc1ccc(C2=C(N3CCc4ccccc43)C(=O)NC2=O)cc1`, the IC50 cell viability was above 10 µM.

In turn, `COc1ccc(-c2nn3ncccc3c2-c2ccnc(Nc3ccc(Cl)c(C(F)(F)F)c3)n2)cc1` gave an IC50 cell viability above 10 µM.

Turning to `CCc1nccc2c1nc(-c1nonc1N)n2CC`, the IC50 cell viability is above 10 µM.

Compound `COC(=O)Nc1nc2ccc(Oc3ccc(NC(=O)Nc4ccccc4)cc3)cc2[nH]1` registered an IC50 cell viability above 10 µM.

For `NC(=O)c1cc(-c2ccc(F)cc2)cc(-c2ccncc2)c1N`, the IC50 cell viability was above 10 µM.

`CCN1CCC(CC(=O)Nc2n[nH]c3nnc(-c4cccc(F)c4F)cc23)CC1` displayed an IC50 cell viability of 5.1 µM.

The compound `NC(=O)c1sc(-n2cnc3ccccc32)cc1OCc1ccccc1Br` displayed an IC50 cell viability above 10 µM.

Take `NS(=O)(=O)c1ccc(N=Nc2c(O)[nH]c3ccc(-c4cnco4)cc23)cc1`: the IC50 cell viability is above 10 µM.

`C[C@@H](Oc1cc(-n2cnc3ccc(OC4CCN(C)CC4)cc32)sc1C(N)=O)c1ccccc1Cl` came in with an IC50 cell viability of 0.9 µM.

As to `COc1ccccc1Nc1ncc(-c2ccccc2)o1`, the IC50 cell viability is above 10 µM.

Compound `CN(c1ccc(NC(=O)NCCN2CCOCC2)cc1)c1ccnc(Nc2ccc(CS(C)(=O)=O)cc2)n1` came in with an IC50 cell viability above 10 µM.

Compound `CNC(=O)c1cc(-c2ccc(F)cc2)cc(-c2ccc(S(=O)(=O)N3CCCC3)cc2)c1N` gave an IC50 cell viability above 10 µM.

`Cc1cccc(-c2[nH]ncc2-c2ccc3ncccc3n2)n1` registered an IC50 cell viability above 10 µM.

`O=C(Nc1n[nH]c2cc(-c3ccccc3)ccc12)C1CC1` displayed an IC50 cell viability above 10 µM.

In turn, `CCc1cccc(CC)c1/C=C/c1cncc(C(=O)NC)c1` yielded an IC50 cell viability above 10 µM.

As to `NC(=O)c1cc(-c2ccncc2)cc(-c2ccccc2)c1N`, the IC50 cell viability is above 10 µM.

Compound `Clc1ccc(CNc2nccc(-c3cnn4ncccc34)n2)cc1` yielded an IC50 cell viability above 10 µM.

In the case of `C#Cc1cccc(Nc2ncnc3ccc(OCCCCNCCS(C)(=O)=O)cc23)c1`, the IC50 cell viability amounted to 4.9 µM.

As for `Cc1cccc(Nc2ncc(-c3ccccc3)o2)c1`, the IC50 cell viability is above 10 µM.

The compound `O=C1Nc2ccccc2C1=C1CCc2cc(O)ccc21` came in with an IC50 cell viability above 10 µM.

Turning to `NC(=O)c1ccc(Oc2nccc(-c3c(-c4ccc(F)cc4)ncn3C3CCNCC3)n2)cc1`, the IC50 cell viability is above 10 µM.

For the compound `COc1ccc(-c2cc(-c3cn[nH]c3-c3ccccn3)ccn2)cc1`, the IC50 cell viability is above 10 µM.

The compound `CC1=C(C(=O)Nc2ccc3[nH]ncc3c2)C(c2ccc(F)cc2)NC(=O)N1` (stereo unspecified) came in with an IC50 cell viability above 10 µM.

Compound `NS(=O)(=O)c1cccc(Nc2cc(-c3ccc(F)cc3)[nH]n2)c1` gave an IC50 cell viability above 10 µM.

In turn, `CCn1c(-c2nonc2N)nc2c(C#CC(C)(C)O)nc(OCCNC)cc21` showed an IC50 cell viability of 1.3 µM.

Take `CC1=C(C(=O)Nc2ccc3n[nH]c(C)c3c2)C(c2ccc(C(F)(F)F)cc2)CC(=O)N1` (stereo unspecified): the IC50 cell viability is above 10 µM.

As to `COc1cccc(-n2ncc3c(N/N=C/c4ccc(S(C)(=O)=O)cc4)ncnc32)c1`, the IC50 cell viability was above 10 µM.

Turning to `COc1ccc(-c2nn3ncccc3c2-c2ccnc(Nc3ccc(F)c(F)c3)n2)cc1`, the IC50 cell viability is above 10 µM.

Compound `NS(=O)(=O)c1ccc(N=Nc2c(O)[nH]c3ccc(C(=O)NCc4ccncc4)cc23)cc1` had an IC50 cell viability above 10 µM.

As for `CCS(=O)(=O)c1ccc(OC)c(Nc2ncc(-c3cccc(F)c3)o2)c1`, the IC50 cell viability is above 10 µM.

`CCCN1CCC(Oc2cc(Nc3nc(Nc4cccc(F)c4C(N)=O)c4cc[nH]c4n3)c(OC)cc2Cl)CC1` registered an IC50 cell viability of 3.2 µM.

With `Cn1c(-c2nonc2N)nc2cnccc21`, the IC50 cell viability is above 10 µM.

Take `CS(=O)(=O)CCNCc1ccc(-c2ccc3ncnc(Nc4ccc(OCc5ccccc5)c(Cl)c4)c3c2)o1`: the IC50 cell viability is above 10 µM.

For `COc1cc(C)c(NC(=O)CN(C)C)cc1Nc1nc(Nc2cccc(F)c2C(N)=O)c2cc[nH]c2n1`, the IC50 cell viability was above 10 µM.

For `O=C1NC(=O)C(N2CCc3ccccc32)=C1c1ccc(Cl)cc1`, the IC50 cell viability is above 10 µM.

In the case of `CCn1c(-c2nonc2N)nc2ccncc21`, the IC50 cell viability is above 10 µM.

As for `CN(C)CCNC(=O)Nc1ccc(N(C)c2ccnc(Nc3ccc(CS(C)(=O)=O)cc3)n2)cc1`, the IC50 cell viability is above 10 µM.

`Nc1nc(-c2ccc(F)cc2)c(-c2ccc3ncccc3n2)s1` had an IC50 cell viability above 10 µM.

As to `Fc1cccc(COc2ccc(Nc3ncncc3C#Cc3ccccc3)cc2Cl)c1`, the IC50 cell viability was above 10 µM.

For the compound `CCCN1CCCC(c2ccc(Nc3nc(Nc4cc(F)ccc4C(N)=O)c4cc[nH]c4n3)c(OC)c2)C1` (stereo unspecified), the IC50 cell viability is 1.4 µM.

Consider `COc1cccc(-n2ncc3c(N/N=C/c4ccncc4)ncnc32)c1`, for which the IC50 cell viability is above 10 µM.

`Fc1cccc(COc2ccc(Nc3ncnc4sc(-c5ccco5)cc34)cc2Cl)c1`: the IC50 cell viability was above 10 µM.

In turn, `COc1ccc2cc(-c3c(-c4ccncc4)nc(-c4ccc(S(C)(=O)=O)cc4C)n3C)ccc2c1` returned an IC50 cell viability above 10 µM.
